Data on twelve compounds can be found in PubChem BioAssay (NCI).

SMILES strings stand for the structures. Where “and” joins values, the source holds several entries; their conditions need not be identical. Equal values may be shown once.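 Dose response: 5 concentrations. Exposure: 48 h. Format: 96-well plates. Endpoint: linear interpolation; highest concentration if not reached. GI50: concentration for 50% inhibition of growth. Definition used: TGI = concentration required for complete inhibition of growth.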

Test systems include CAKI-1 renal; CCRF-CEM leukemia; NCI/ADR-RES ovarian; RPMI-8226 leukemia; SNB-75 CNS; SR leukemia; T-47D breast; M19-MEL melanoma.
Assay in all cases: NCI anticancer screen, dose series, 48 h

For the compound `NS(=O)(=O)c1ccc(N=Nc2c(=O)[nH]c3ccc4[nH]cccc4c23)cc1`, the GI50 with CAKI-1 renal was 4.28 µM; in the assay with CCRF-CEM leukemia, 0.202 µM; in the assay on NCI/ADR-RES ovarian, greater than 15.8 µM; in the assay with RPMI-8226 leukemia, 1.97 µM; in the assay on SNB-75 CNS, 0.404 µM; in the assay with SR leukemia, 0.147 µM. Besides, the GI50 in the assay with T-47D breast was 0.48 µM. Further, the TGI was greater than 25 µM in the assay on CAKI-1 renal; greater than 25 µM in the assay with CCRF-CEM leukemia; greater than 25 µM in the assay on NCI/ADR-RES ovarian; 14.2 µM in the assay with RPMI-8226 leukemia; 1.3 µM in the assay on SNB-75 CNS; 0.652 µM in the assay with SR leukemia. The TGI with T-47D breast was 1.98 µM.
On to `COc1cc(OC)c2c(c1Cl)O[C@]1(C2=O)C(OCc2ccccc2)=CC(=O)C[C@H]1C`, for which the GI50 is 0.656 µM in the assay on CAKI-1 renal; 0.532 µM in the assay with CCRF-CEM leukemia; 0.584 µM in the assay with NCI/ADR-RES ovarian; 1.13 µM with RPMI-8226 leukemia; 0.936 µM with SNB-75 CNS; 0.331 µM with SR leukemia. Further, in the assay with T-47D breast, the GI50 was 0.792 µM. In addition, the TGI was found to be 60.6 µM in the assay on CAKI-1 renal; 12.2 µM in the assay with CCRF-CEM leukemia; 3.72 µM in the assay with NCI/ADR-RES ovarian; 17 µM in the assay on RPMI-8226 leukemia; 27.4 µM in the assay with SNB-75 CNS; 10.8 µM with SR leukemia. Besides, the TGI with T-47D breast was determined as 67.8 µM.
Regarding `C[C@H](c1ccc(Cl)cc1[N+](=O)[O-])N1C(=O)c2cc(I)ccc2NC(=O)[C@H]1c1ccc(Cl)cc1`, the GI50 was 4.2 µM in the assay on CAKI-1 renal; greater than 100 µM in the assay on CCRF-CEM leukemia; greater than 100 µM in the assay on NCI/ADR-RES ovarian; greater than 100 µM with RPMI-8226 leukemia; greater than 100 µM with SNB-75 CNS; 28 µM with SR leukemia. Moreover, the GI50 in the assay on T-47D breast is 5.37 µM. The TGI with CAKI-1 renal, with CCRF-CEM leukemia, in the assay on NCI/ADR-RES ovarian, with RPMI-8226 leukemia, in the assay with SNB-75 CNS and in the assay on SR leukemia was greater than 100 µM each time. For the same compound, in the assay on T-47D breast, the TGI is greater than 100 µM.
For `C=CC(=O)Nc1cccc(Nc2nc(Nc3ccc(N4CCN(C(C)=O)CC4)cc3OC)ncc2C(F)(F)F)c1`, the GI50 with CAKI-1 renal was 2.32 µM and 1.64 µM; with CCRF-CEM leukemia it was 3.62 µM and 4.32 µM; in the assay with NCI/ADR-RES ovarian, 7.5 µM and 9.09 µM; with RPMI-8226 leukemia, 4.17 µM and 3.43 µM; in the assay with SNB-75 CNS, 5.18 µM and 2.47 µM; in the assay with SR leukemia, 3.37 µM and 1.45 µM. Also, the GI50 with T-47D breast is 1.88 µM and 3.92 µM. Also, the TGI was > 10 µM and 6.01 µM with CAKI-1 renal; greater than 65.5 µM in the assay with CCRF-CEM leukemia; greater than 74.4 µM in the assay with NCI/ADR-RES ovarian; > 10 µM and 25.6 µM in the assay with RPMI-8226 leukemia; > 10 µM and 15.3 µM with SNB-75 CNS; 8.32 µM and > 45.3 µM with SR leukemia. The TGI in the assay on T-47D breast is > 10 µM and 49.3 µM.
For `Nc1nc(N)c(-c2ccc(Cl)cc2)c(/C=C/c2ccc([N+](=O)[O-])cc2)n1`, the GI50 in the assay with CAKI-1 renal is 4.92 µM; in the assay on CCRF-CEM leukemia, 6.17 µM; in the assay with NCI/ADR-RES ovarian, 7.99 µM; in the assay on RPMI-8226 leukemia, 5.8 µM; in the assay on SNB-75 CNS, 5 µM; with SR leukemia it was 6.25 µM. Also, in the assay on T-47D breast, the GI50 was 6.19 µM. The TGI in the assay with CAKI-1 renal is greater than 100 µM; with CCRF-CEM leukemia, greater than 100 µM; in the assay on NCI/ADR-RES ovarian it was greater than 100 µM; in the assay with RPMI-8226 leukemia, greater than 100 µM; with SNB-75 CNS, 34 µM; with SR leukemia, greater than 100 µM. The compound further registered a TGI in the assay on T-47D breast greater than 100 µM.
As for `COc1ccc(-c2cc3c(N)ncnc3o2)cc1`, the GI50 is 17.6 µM with CAKI-1 renal; greater than 25 µM in the assay on CCRF-CEM leukemia; greater than 25 µM in the assay on NCI/ADR-RES ovarian; greater than 25 µM with RPMI-8226 leukemia; 24.9 µM in the assay with SNB-75 CNS; greater than 25 µM with SR leukemia. The GI50 in the assay on T-47D breast was greater than 25 µM. In addition, the TGI in the assay with CAKI-1 renal, with CCRF-CEM leukemia, with NCI/ADR-RES ovarian, in the assay on RPMI-8226 leukemia, in the assay with SNB-75 CNS and in the assay on SR leukemia was greater than 25 µM throughout. The TGI in the assay on T-47D breast is greater than 25 µM.
On to `COc1cc2c3c(n(CCCN4CCN(CCO)CC4)c(=O)c2cc1OC)-c1cc2c(cc1C3=O)OCO2`, for which the GI50 in the assay with CAKI-1 renal is 6.53 µM; in the assay with CCRF-CEM leukemia, 0.203 µM; in the assay on NCI/ADR-RES ovarian, 18.2 µM; in the assay on RPMI-8226 leukemia, 0.559 µM; with SNB-75 CNS, 9.87 µM; in the assay with T-47D breast, greater than 100 µM. The TGI in the assay on CAKI-1 renal is 42.2 µM; in the assay on CCRF-CEM leukemia, 1.8 µM; with NCI/ADR-RES ovarian, greater than 100 µM; in the assay on RPMI-8226 leukemia, 3.91 µM; with SNB-75 CNS, 31.7 µM; with SR leukemia, 1.34 µM. For the same compound, the TGI with T-47D breast is greater than 100 µM.
`CCCC(CCC)C(=O)O`: the GI50 in the assay on CAKI-1 renal, in the assay with CCRF-CEM leukemia, in the assay with NCI/ADR-RES ovarian, in the assay with RPMI-8226 leukemia, in the assay with SNB-75 CNS and in the assay with SR leukemia was greater than 100 µM throughout. Moreover, the GI50 with T-47D breast is greater than 100 µM. For the same compound, the TGI in the assay with CAKI-1 renal is greater than 20000 µM; in the assay on CCRF-CEM leukemia, greater than 20000 µM; in the assay with NCI/ADR-RES ovarian, greater than 20000 µM; in the assay on RPMI-8226 leukemia, greater than 20000 µM; in the assay on SNB-75 CNS, > 100 µM and 18400 µM; in the assay on SR leukemia it was greater than 20000 µM. Besides, the TGI with T-47D breast was greater than 20000 µM.
As to `CC(C)Cn1cnc2c(SCc3ccccn3)nc(N)nc21`, the TGI with CAKI-1 renal, in the assay with CCRF-CEM leukemia, in the assay on NCI/ADR-RES ovarian, with RPMI-8226 leukemia, in the assay on SNB-75 CNS and in the assay on SR leukemia was greater than 100 µM each time. For the same compound, the TGI in the assay on T-47D breast is greater than 100 µM.
In the case of `CN1CCN(Cc2ccc(NC(=O)c3cncc(C#Cc4ncc5ccccn45)c3)cc2C(F)(F)F)CC1`, the GI50 was 0.913 µM in the assay on CAKI-1 renal; 0.962 µM in the assay with CCRF-CEM leukemia; 2.77 µM in the assay on NCI/ADR-RES ovarian; 0.858 µM in the assay on RPMI-8226 leukemia; 2.73 µM with SNB-75 CNS; 0.511 µM with SR leukemia. The GI50 with T-47D breast is 1.6 µM. For the same compound, the TGI with CAKI-1 renal is 3.99 µM; in the assay on CCRF-CEM leukemia, 8.3 µM; in the assay with NCI/ADR-RES ovarian, 16 µM; with RPMI-8226 leukemia, 4.15 µM; in the assay with SNB-75 CNS, 5.77 µM; in the assay with SR leukemia, 1.41 µM. Also, the TGI in the assay on T-47D breast came to 6.76 µM.
`O=[N+]([O-])c1ccc2nc(=S)[nH]n2c1`: the TGI with CAKI-1 renal, in the assay on CCRF-CEM leukemia, in the assay on NCI/ADR-RES ovarian, in the assay with RPMI-8226 leukemia, in the assay with SNB-75 CNS and in the assay on SR leukemia was greater than 100 µM in each case. Besides, the TGI with T-47D breast was greater than 100 µM.
As to `COc1ccc(S(=O)(=O)N/N=C/CN2C(=O)c3ccccc3C2=O)cc1`, the TGI in the assay on CAKI-1 renal, in the assay with CCRF-CEM leukemia, in the assay on M19-MEL melanoma, in the assay with RPMI-8226 leukemia, in the assay on SNB-75 CNS and in the assay on SR leukemia was greater than 100 µM each time.
